Measurements reported in patent US8329686B2, “Isatin analogues and uses therefor” (Washington University, priority 2006, dated 2012).

Columns and labels:
Assay type in all cases: biochemical
caspase-3 [1] = biological target: T1, caspase-3 (Homo sapiens, UniProt P42574); test: Enzyme kinetic studies versus Ac-DEVD-AMC
T1 construct: purchased Sigma-Aldrich (St. Louis, Mo.)
T1 sequence (P42574 29-175 limits assumed): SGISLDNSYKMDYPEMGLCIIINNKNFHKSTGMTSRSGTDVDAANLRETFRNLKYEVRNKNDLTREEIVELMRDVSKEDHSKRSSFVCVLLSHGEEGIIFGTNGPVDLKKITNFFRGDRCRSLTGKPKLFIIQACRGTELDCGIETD
T1 sequence (P42574 176-277 limits assumed): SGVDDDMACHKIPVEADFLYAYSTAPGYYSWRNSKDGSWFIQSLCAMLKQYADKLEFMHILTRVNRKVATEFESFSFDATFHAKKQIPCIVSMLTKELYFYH
Description: Enzyme Kinetic Studies. The inhibition profile for compound 21c was determined for caspase-3 in the assay buffer. The concentration of Ac-DEVD-AMC was varied from 6.25 to 100 μM, and the concentration of 21c was varied from 0 to 20 nM. The kinetic parameters of 21c were obtained by fitting initial-rate data to
[formula] where v is the observed velocity, S is the substrate concentration, Vm is the velocity at saturating substrate, Km is the Michaelis constant of the substrate, I is the inhibitor concentration, and Ki is the dissociation constant of the inhibitor from the E·I complex. The data were analyzed using GraFit 4.0 (Erithacus Software, Staines, U.K.)
Kinetic studies were also conducted in order to determine the mechanism of inhibition of caspase-3 activity by compound 21c.

caspase 7 = biological target: T2, caspase 7 (Homo sapiens, UniProt P55210); test: Enzyme inhibition assay, caspase 7 (fluorogenic Ac-DEVD-AMC); settings: Table 6; read-out: IC50 (nM) caspase-7
T2 construct: purchased Sigma-Aldrich (St. Louis, Mo.)
T2 sequence (P55210 24-198 limits assumed): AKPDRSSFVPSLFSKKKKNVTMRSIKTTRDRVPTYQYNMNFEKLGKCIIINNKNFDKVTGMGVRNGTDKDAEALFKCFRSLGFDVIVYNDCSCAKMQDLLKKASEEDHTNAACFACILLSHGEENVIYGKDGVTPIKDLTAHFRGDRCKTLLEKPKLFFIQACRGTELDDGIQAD
T2 sequence (P55210 207-303 limits assumed): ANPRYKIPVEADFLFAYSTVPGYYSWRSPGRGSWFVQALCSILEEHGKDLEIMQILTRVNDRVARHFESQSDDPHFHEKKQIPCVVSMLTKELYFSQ

caspase 6 = biological target: T3, caspase 6 (Homo sapiens, UniProt P55212); test: Enzyme inhibition assay, caspase 6 (fluorogenic Ac-VEID-AMC); settings: Table 6; read-out: IC50 (nM) caspase-6
T3 construct: purchased Sigma-Aldrich (St. Louis, Mo.)
T3 sequence (P55212 24-179 limits assumed): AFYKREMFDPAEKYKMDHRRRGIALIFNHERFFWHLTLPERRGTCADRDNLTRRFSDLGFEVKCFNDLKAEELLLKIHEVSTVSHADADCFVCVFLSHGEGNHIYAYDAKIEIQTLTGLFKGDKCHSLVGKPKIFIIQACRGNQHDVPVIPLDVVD
T3 sequence (P55212 194-293 limits assumed): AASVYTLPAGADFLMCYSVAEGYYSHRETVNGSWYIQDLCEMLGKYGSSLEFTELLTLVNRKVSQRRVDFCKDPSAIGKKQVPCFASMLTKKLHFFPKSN

caspase 1 = biological target: T4, caspase 1 (Homo sapiens, UniProt P29466); test: Enzyme inhibition assay, caspase 1 (fluorogenic Ac-YVAD-AMC); settings: Table 6; read-out: IC50 (nM) caspase-1
T4 construct: purchased BIOMOL Research Laboratories (Plymouth Meeting, Pa.)
T4 sequence (P29466 120-297 limits assumed): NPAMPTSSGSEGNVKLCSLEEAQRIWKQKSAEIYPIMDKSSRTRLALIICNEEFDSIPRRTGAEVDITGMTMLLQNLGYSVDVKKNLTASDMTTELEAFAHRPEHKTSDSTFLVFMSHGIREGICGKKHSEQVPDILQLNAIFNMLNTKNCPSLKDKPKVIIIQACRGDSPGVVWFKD
T4 sequence (P29466 317-404 limits assumed): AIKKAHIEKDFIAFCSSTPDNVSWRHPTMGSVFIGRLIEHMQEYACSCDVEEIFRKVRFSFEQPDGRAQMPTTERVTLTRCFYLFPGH

caspase 8 = biological target: T5, caspase 8 (Homo sapiens, UniProt Q14790); test: Enzyme inhibition assay, caspase 8 (fluorogenic Ac-IETD-AMC); settings: Table 6; read-out: IC50 (nM) caspase-8
T5 construct: purchased Sigma-Aldrich (St. Louis, Mo.)

caspase-3 [2] = biological target: T1, caspase-3; test: Enzyme inhibition assay, caspase 3 (fluorogenic Ac-DEVD-AMC); settings: read-out: IC50 for caspase-3

T5 sequence (Q14790 217-374 limits assumed): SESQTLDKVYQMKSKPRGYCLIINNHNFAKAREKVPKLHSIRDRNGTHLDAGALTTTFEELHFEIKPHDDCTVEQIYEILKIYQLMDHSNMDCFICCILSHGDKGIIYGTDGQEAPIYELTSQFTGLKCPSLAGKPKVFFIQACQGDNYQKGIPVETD
T5 sequence (Q14790 385-479 limits assumed): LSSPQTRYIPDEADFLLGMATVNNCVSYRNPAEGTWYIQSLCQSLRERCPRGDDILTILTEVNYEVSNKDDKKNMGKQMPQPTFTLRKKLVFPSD

- Ki (caspase-3 [1]; competitive versus Ac-DEVD-AMC, read-out: calculated Ki value): 0.0044 µM
- mechanism of inhibition of caspase-3 activity (caspase-3 [1]; versus Ac-DEVD-AMC): competitive inhibition
- IC50 (caspase 7): 15.1 ± 1.2 nM
- IC50 (caspase 6): > 5000 nM
- IC50 (caspase 1): > 10000 nM
- IC50 (caspase 8): > 50000 nM
- IC50 (caspase-3 [2]): 0.0039 µM
Compound: COc1ccc(CN2C(=O)C(=O)c3cc(S(=O)(=O)N4CCCC4COc4cccnc4)ccc32)cc1 (stereo not shown) [Compound 21c, 1-(4-Methoxybenzyl)-5-(2-(pyridin-3-yl-oxymethyl)-pyrrolidine-1-sulfonyl)-1H-indole-2,3-dione]
